Laboratory results: PubChem BioAssay (NCI)
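Five compound concentrations were applied to cells in 96-well plates for 48 hours; endpoints were derived by simple linear interpolation of the resulting dose-response curve. GI50 marks 50% less growth. TGI: total growth inhibition.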

What was measured:
Assay in all cases: NCI anticancer screen, dose series, 48 h
[1] = system: 786-0 renal
[2] = system: PC-3 prostate
[3] = system: HT29 colon
[4] = system: SK-MEL-28 melanoma
[5] = system: MCF7 breast
[6] = system: SNB-75 CNS
[7] = system: HOP-92 NSCLC
[8] = system: LOX IMVI melanoma
[9] = system: SK-OV-3 ovarian
[10] = system: M14 melanoma
[11] = system: K-562 leukemia
[12] = system: KM12 colon
[13] = system: HCT-15 colon
[14] = system: NCI-H460 lung
[15] = system: EKVX NSCLC
[16] = system: SK-MEL-5 melanoma
[17] = system: SK-MEL-2 melanoma
[18] = system: UACC-257 melanoma
[19] = system: UACC-62 melanoma
[20] = system: SF-295 CNS
[21] = system: MOLT-4 leukemia
[22] = system: SR leukemia
[23] = system: MDA-MB-435
[24] = system: ACHN renal
[25] = system: SNB-19 CNS
[26] = system: HCT-116 colon
[27] = system: RXF 393 renal
[28] = system: A549 NSCLC
[29] = system: RPMI-8226 leukemia
[30] = system: OVCAR-5 ovarian
[31] = system: SW-620 colon
[32] = system: UO-31 renal
[33] = system: SF-539 CNS
[34] = system: NCI/ADR-RES ovarian
[35] = system: OVCAR-4 ovarian
[36] = system: U251 CNS
[37] = system: HL-60(TB) leukemia
[38] = system: SN12C renal
[39] = system: COLO 205 colon
[40] = system: BT-549 breast
[41] = system: TK-10 renal
[42] = system: A498 renal
[43] = system: OVCAR-3 ovarian
[44] = system: CAKI-1 renal
[45] = system: HS 578T breast
[46] = system: NCI-H23 lung
[47] = system: CCRF-CEM leukemia
[48] = system: T-47D breast
[49] = system: HCC-2998 colon
[50] = system: HOP-62 NSCLC
[51] = system: DU-145 prostate
[52] = system: SF-268 CNS
[53] = system: MDA-MB-468 breast
[54] = system: OVCAR-8 ovarian
[55] = system: NCI-H226 lung
[56] = system: MDA-MB-231 breast
[57] = system: IGROV1 ovarian
[58] = system: NCI-H522 lung
[59] = system: MALME-3M melanoma

COc1ccc(CCN2C(=O)/C(=C/c3csc(C#N)n3)SC2=S)cc1OC
GI50 [1]: 5.56 µM
TGI [1]: 18.9 µM
GI50 [2]: 15.6 µM
TGI [2]: 37.9 µM
GI50 [3]: 13.5 µM
TGI [3]: 27.6 µM
GI50 [4]: 12.1 µM
TGI [4]: 25.3 µM
GI50 [5]: 3.3 µM
TGI [5]: 15.7 µM
GI50 [6]: 22.6 µM
TGI [6]: > 100 µM
GI50 [7]: 2.12 µM
TGI [7]: 8.56 µM
GI50 [8]: 2.9 µM
TGI [8]: 10.6 µM
GI50 [9]: 66.8 µM
TGI [9]: > 100 µM
GI50 [10]: 13.8 µM
TGI [10]: 49.1 µM
GI50 [11]: 2.97 µM
TGI [11]: 15.5 µM
GI50 [12]: 3.71 µM
TGI [12]: 15.2 µM
GI50 [13]: 5.3 µM
TGI [13]: 20.9 µM
GI50 [14]: 17.4 µM
TGI [14]: 38.7 µM
GI50 [15]: 22.2 µM
TGI [15]: 60 µM
GI50 [16]: 13.6 µM
TGI [16]: 28.8 µM
GI50 [17]: 13.3 µM
TGI [17]: 28.6 µM
GI50 [18]: 11 µM
TGI [18]: 34 µM
GI50 [19]: 11.5 µM
TGI [19]: 23.9 µM
GI50 [20]: 83.8 µM
TGI [20]: > 100 µM
GI50 [21]: 3.94 µM
TGI [21]: 25.4 µM
GI50 [22]: 2.46 µM
TGI [22]: 8.72 µM
GI50 [23]: 13.6 µM
TGI [23]: 29.3 µM
GI50 [24]: 13.4 µM
TGI [24]: 31.4 µM
GI50 [25]: 20.7 µM
TGI [25]: 54 µM
GI50 [26]: 4.55 µM
TGI [26]: 16.9 µM
GI50 [27]: 3.56 µM
TGI [27]: 12.6 µM
GI50 [28]: 35 µM
TGI [28]: > 100 µM
GI50 [29]: 3.03 µM
TGI [29]: 19.9 µM
GI50 [30]: 21.2 µM
TGI [30]: 69.5 µM
GI50 [31]: 3.15 µM
TGI [31]: 11.7 µM
GI50 [32]: 5.08 µM
TGI [32]: 23.9 µM
GI50 [33]: 12.5 µM
TGI [33]: 25 µM
GI50 [34]: 16.3 µM
TGI [34]: 35.7 µM
GI50 [35]: 11.4 µM
TGI [35]: 32.9 µM
GI50 [36]: 14.8 µM
TGI [36]: 29.9 µM
GI50 [37]: 14.6 µM
TGI [37]: 40.1 µM
GI50 [38]: 11.9 µM
TGI [38]: 26.4 µM
GI50 [39]: 21.6 µM
TGI [39]: 87.5 µM
GI50 [40]: 11.4 µM
TGI [40]: 24.2 µM
GI50 [41]: 3.13 µM
TGI [41]: 10.3 µM
GI50 [42]: 18.6 µM
TGI [42]: 68 µM
GI50 [43]: 4.99 µM
TGI [43]: 18 µM
GI50 [44]: 16.5 µM
TGI [44]: 33.3 µM
GI50 [45]: 19.8 µM
TGI [45]: 72.9 µM
GI50 [46]: 14.6 µM
TGI [46]: 28 µM
GI50 [47]: 3.38 µM
TGI [47]: 11.4 µM
GI50 [48]: 3.22 µM
TGI [48]: 20.6 µM
GI50 [49]: 15.3 µM
TGI [49]: 29.9 µM
GI50 [50]: 22 µM
TGI [50]: 69.6 µM
GI50 [51]: 2.96 µM
TGI [51]: 10.5 µM
GI50 [52]: 12.2 µM
TGI [52]: 27 µM
GI50 [53]: 2.67 µM
TGI [53]: 14.9 µM
GI50 [54]: 15.4 µM
TGI [54]: 30.5 µM
GI50 [55]: 15.8 µM
TGI [55]: 41.5 µM
GI50 [56]: 12 µM
TGI [56]: 28.8 µM
GI50 [57]: 18.2 µM
TGI [57]: 41.7 µM
GI50 [58]: 2.68 µM
TGI [58]: 13.5 µM
GI50 [59]: 11.9 µM
TGI [59]: 29.7 µM
